Test results reported in ChEMBL document CHEMBL1201862, “PubChem BioAssay data set” (2004).
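Cells were grown in 96-well plates and exposed to each compound for 48 hours at five concentrations; endpoints were interpolated linearly between bracketing concentrations, or set to the highest concentration if not reached. The concentration for 50% growth inhibition is given as GI50.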 Active and inactive are the calls of the source. Rule as the data show it: active = GI50 up to about 1.1 µM and inactive = higher.

What was measured:
Experiment in all cases: NCI anticancer screen, dose series, 48 h
XF498 = test system: XF498
RXF 631 = test system: RXF 631
DMS-114 = test system: DMS-114
LXFL 529 = test system: LXFL 529
M19-MEL = test system: M19-MEL
DLD-1 = test system: DLD-1
SNB-78 = test system: SNB-78
HOP-18 = test system: HOP-18
KM-20L2 = test system: KM-20L2

Measured: GI50

C/C(=N\NC(=N)N)C(CN(CC(C)C)CC(C)C)C(=O)Nc1ccc(C)cc1C (configuration not stated)
inactive: XF498 59.6 µM | RXF 631 > 100 µM | DMS-114 > 100 µM | LXFL 529 > 100 µM | M19-MEL > 100 µM | DLD-1 > 100 µM | SNB-78 > 100 µM | HOP-18 > 100 µM | KM-20L2 > 100 µM

O=C1CCCC2=C(N1)C(=O)C=CC2=O
inactive: XF498 > 100 µM | RXF 631 > 100 µM | DMS-114 > 41.7 µM | LXFL 529 > 58.7 µM | M19-MEL > 100 µM | DLD-1 > 53.2 µM | SNB-78 > 100 µM | HOP-18 > 100 µM | KM-20L2 > 100 µM

O=C(N/C(=C\c1ccc([N+](=O)[O-])cc1)c1nc2c(O)nc(S)nc2[nH]1)c1ccccc1
inactive: XF498 > 100 µM | DMS-114 77.3 µM | LXFL 529 65.2 µM | M19-MEL > 100 µM | DLD-1 53.7 µM | SNB-78 > 100 µM | KM-20L2 > 100 µM

COC(=O)NC(=O)c1cn(C2OC(CO)C(O)C2O)c(=O)[nH]c1=O (configuration not stated)
inactive: LXFL 529 > 100 µM | M19-MEL > 100 µM | DLD-1 > 100 µM | SNB-78 > 100 µM | KM-20L2 > 100 µM

CCN(CC)C(=S)N/N=C(\C)c1ccccc1O
inactive: RXF 631 35.2 µM | DMS-114 11.9 µM | LXFL 529 13.5 µM | M19-MEL 39.9 µM | DLD-1 17.8 µM | SNB-78 > 100 µM | HOP-18 26.2 µM | KM-20L2 21.4 µM

O=C(O)C1=C(C(=O)Nc2ccccc2)C2C=CC1C2 (configuration not stated)
inactive: XF498 > 100 µM | DMS-114 > 100 µM | LXFL 529 > 100 µM | M19-MEL > 100 µM | DLD-1 > 100 µM | SNB-78 > 100 µM | HOP-18 > 100 µM | KM-20L2 > 100 µM

Cn1cnc2[nH]c(=O)[nH]c(=S)c21
inactive: XF498 > 100 µM | RXF 631 > 100 µM | DMS-114 > 100 µM | LXFL 529 > 100 µM | M19-MEL > 100 µM | DLD-1 > 100 µM | SNB-78 > 100 µM | HOP-18 > 100 µM | KM-20L2 > 100 µM

COc1cc(C2c3cc4c(cc3[C@@H](Nc3ccc([N+](=O)[O-])cc3)C3COC(=O)[C@H]23)OCO4)cc(OC)c1O (some centres not stated)
inactive: XF498 2.07 µM | RXF 631 1.6 µM | DMS-114 1.52 µM | LXFL 529 6.4 µM | M19-MEL 3.06 µM | SNB-78 5.68 µM | HOP-18 11.2 µM | KM-20L2 2.12 µM

NNC(=O)C(=O)N/N=C(\CCC(=O)Nc1ccc(Cl)cc1)Cc1nc2ccccc2s1
inactive: DMS-114 19.1 µM | LXFL 529 26.4 µM | M19-MEL 17.4 µM | SNB-78 70.5 µM | HOP-18 5.33 µM | KM-20L2 45.5 µM

c1ccc(C2=NN(c3ccccc3)C3(S2)SC(c2ccccc2)(c2ccccc2)c2ccccc23)cc1 (configuration not stated)
inactive: XF498 > 100 µM | DMS-114 > 100 µM | LXFL 529 > 100 µM | M19-MEL > 100 µM | DLD-1 > 100 µM | SNB-78 > 100 µM | KM-20L2 > 100 µM

NC(=O)c1ncn(C2OC(CO)C(O)C2O)c1O (configuration not stated)
inactive: XF498 > 100 µM | RXF 631 > 100 µM | DMS-114 > 100 µM | LXFL 529 > 100 µM | M19-MEL > 100 µM | SNB-78 > 100 µM | HOP-18 53.7 µM | KM-20L2 34.8 µM

O=C1C(c2ccccc2)=C(c2ccccc2)C(c2ccc(Cc3ccc(C4=C(c5ccccc5)C(=O)C(c5ccccc5)=C4c4ccccc4)cc3)cc2)=C1c1ccccc1
inactive: XF498 > 100 µM | DMS-114 > 100 µM | M19-MEL > 100 µM | DLD-1 > 100 µM | SNB-78 > 100 µM | HOP-18 > 100 µM | KM-20L2 > 100 µM

NC(CCCCN/C=C1/N=C(c2ccccc2)OC1=O)C(=O)O (configuration not stated)
inactive: XF498 > 100 µM | DMS-114 > 100 µM | LXFL 529 > 100 µM | M19-MEL > 100 µM | DLD-1 > 100 µM | SNB-78 > 100 µM | KM-20L2 > 100 µM

COC(=O)C(=O)C(C#N)c1ccc(Cl)c(Cl)c1 (configuration not stated)
inactive: XF498 > 100 µM | RXF 631 > 100 µM | LXFL 529 > 100 µM | M19-MEL > 100 µM | DLD-1 > 100 µM | SNB-78 > 100 µM | KM-20L2 > 100 µM

O=c1c2ccccc2c(=O)n2n1-c1cccc(c1)CSSCc1cccc-2c1
inactive: XF498 62.2 µM | RXF 631 > 10 µM | DMS-114 > 10 µM | LXFL 529 > 10 µM | M19-MEL > 10 µM | DLD-1 > 10 µM | SNB-78 62.1 µM | HOP-18 > 10 µM | KM-20L2 > 100 µM

CC(C)c1cccc(C(C)C)c1NC(=O)C(=O)Cc1nc2ccc([N+](=O)[O-])cc2nc1O
inactive: RXF 631 40.8 µM | DMS-114 10.5 µM | LXFL 529 28.2 µM | M19-MEL 80.9 µM | DLD-1 > 100 µM | HOP-18 > 100 µM | KM-20L2 20.1 µM

CC(=O)NNc1nc(C)c(C(=O)/C=C/c2ccccc2Cl)s1
inactive: RXF 631 > 100 µM | DMS-114 > 100 µM | M19-MEL > 100 µM | DLD-1 > 100 µM | SNB-78 > 100 µM | HOP-18 > 100 µM | KM-20L2 > 100 µM

Nc1ccc(C(=O)N/C(=C\C=C\c2ccco2)c2nc3c4c(ccc3[nH]2)C(=O)c2ccccc2C4=O)cc1
inactive: XF498 > 100 µM | RXF 631 32.8 µM | DMS-114 18.5 µM | LXFL 529 49.1 µM | M19-MEL 79.6 µM | DLD-1 13.3 µM | SNB-78 64.6 µM | HOP-18 11.4 µM | KM-20L2 55.6 µM
